Measured values reported in the supplement of paper PMC10883282.

Tests used:
Experiment in all cases: relative viability vs DMSO control (72 h) (fraction); higher = more viable cells
[1] = system: SW982
In short: (§1)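 A 5 µM positive control and 0.1% DMSO vehicle ran alongside sarcoma cell lines seeded in 384-well plates to reach 80–90% confluence. Serially diluted compound, 2.5 µl from source plates of 10 mM to 0.0002 mM, was added after 24 h, and the plates were held 72 h at 37 °C, 5% CO2. Relative viability was worked out from ATPLite readings as percent growth averaged over up to triplicate wells. The values were rescaled so that 1 is full and 0 is none.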

[2] = system: VA-ES-BJ
In short: as §1

[3] = system: KHOS-240S
In short: as §1

[4] = system: MES-SA
In short: as §1

[5] = system: RD
In short: as §1

[6] = system: SK-LMS-1
In short: as §1

[7] = system: SW1353
In short: as §1

[8] = system: HS729
In short: as §1

[9] = system: A204
In short: as §1

[10] = system: SK-ES-1
In short: as §1

[11] = system: SW872
In short: as §1

[12] = system: G401
In short: as §1

CC(C)NC[C@@H](C(=O)N1CCN(c2ncnc3c2[C@H](C)C[C@H]3O)CC1)c1ccc(Cl)cc1 [Ipatasertib]
Conditions | relative viability
[1], 0.00017 µM | 0.991
[1], 0.00051 µM | 0.985
[1], 0.00152 µM | 1.02
[1], 0.00457 µM | 1
[1], 0.01372 µM | 0.945
[1], 0.04115 µM | 0.949
[1], 0.1235 µM | 0.962
[1], 0.3704 µM | 0.881
[1], 1.111 µM | 0.824
[1], 3.333 µM | 0.745
[1], 10 µM | 0.652
[2], 0.00017 µM | 1.07
[2], 0.00051 µM | 1.04
[2], 0.00152 µM | 1.03
[2], 0.00457 µM | 1.022
[2], 0.01372 µM | 0.955
[2], 0.04115 µM | 0.8984
[2], 0.1235 µM | 0.819
[2], 0.3704 µM | 0.666
[2], 1.111 µM | 0.492
[2], 3.333 µM | 0.418
[2], 10 µM | 0.368
[3], 0.00017 µM | 1.06
[3], 0.00051 µM | 1.04
[3], 0.00152 µM | 1.05
[3], 0.00457 µM | 1.05
[3], 0.01372 µM | 1.06
[3], 0.04115 µM | 0.991
[3], 0.1235 µM | 1.01
[3], 0.3704 µM | 0.938
[3], 1.111 µM | 0.87
[3], 3.333 µM | 0.823
[3], 10 µM | 0.703
[4], 0.00017 µM | 0.935
[4], 0.00051 µM | 0.904
[4], 0.00152 µM | 0.9385
[4], 0.00457 µM | 0.905
[4], 0.01372 µM | 0.8986
[4], 0.04115 µM | 0.847
[4], 0.1235 µM | 0.751
[4], 0.3704 µM | 0.619
[4], 1.111 µM | 0.467
[4], 3.333 µM | 0.317
[4], 10 µM | 0.24
[5], 0.00017 µM | 1.03
[5], 0.00051 µM | 1.06
[5], 0.00152 µM | 1.06
[5], 0.00457 µM | 1.05
[5], 0.01372 µM | 1.07
[5], 0.04115 µM | 1.05
[5], 0.1235 µM | 0.991
[5], 0.3704 µM | 0.916
[5], 1.111 µM | 0.799
[5], 3.333 µM | 0.681
[5], 10 µM | 0.623
[6], 0.00017 µM | 0.971
[6], 0.00051 µM | 0.95
[6], 0.00152 µM | 0.96
[6], 0.00457 µM | 1
[6], 0.01372 µM | 0.954
[6], 0.04115 µM | 0.959
[6], 0.1235 µM | 0.909
[6], 0.3704 µM | 0.8304
[6], 1.111 µM | 0.651
[6], 3.333 µM | 0.594
[6], 10 µM | 0.55
[7], 0.00017 µM | 1.04
[7], 0.00051 µM | 1.05
[7], 0.00152 µM | 1.03
[7], 0.00457 µM | 1.02
[7], 0.01372 µM | 0.991
[7], 0.04115 µM | 0.93
[7], 0.1235 µM | 0.935
[7], 0.3704 µM | 0.862
[7], 1.111 µM | 0.864
[7], 3.333 µM | 0.781
[7], 10 µM | 0.727
[8], 0.00017 µM | 1
[8], 0.00051 µM | 0.969
[8], 0.00152 µM | 0.91
[8], 0.00457 µM | 0.916
[8], 0.01372 µM | 0.844
[8], 0.04115 µM | 0.849
[8], 0.1235 µM | 0.802
[8], 0.3704 µM | 0.726
[8], 1.111 µM | 0.643
[8], 3.333 µM | 0.532
[8], 10 µM | 0.49
[9], 0.00017 µM | 1.06
[9], 0.00051 µM | 1.08
[9], 0.00152 µM | 1.05
[9], 0.00457 µM | 1.05
[9], 0.01372 µM | 1.05
[9], 0.04115 µM | 0.992
[9], 0.1235 µM | 0.953
[9], 0.3704 µM | 0.751
[9], 1.111 µM | 0.711
[9], 3.333 µM | 0.621
[9], 10 µM | 0.509
[10], 0.00017 µM | 1.03
[10], 0.00051 µM | 1.04
[10], 0.00152 µM | 1.01
[10], 0.00457 µM | 1
[10], 0.01372 µM | 1.02
[10], 0.04115 µM | 0.947
[10], 0.1235 µM | 0.944
[10], 0.3704 µM | 0.79
[10], 1.111 µM | 0.683
[10], 3.333 µM | 0.529
[10], 10 µM | 0.473
[11], 0.00017 µM | 1.01
[11], 0.00051 µM | 1.04
[11], 0.00152 µM | 1.01
[11], 0.00457 µM | 1.01
[11], 0.01372 µM | 0.922
[11], 0.04115 µM | 0.91
[11], 0.1235 µM | 0.843
[11], 0.3704 µM | 0.712
[11], 1.111 µM | 0.611
[11], 3.333 µM | 0.491
[11], 10 µM | 0.415
[12], 0.00017 µM | 1.03
[12], 0.00051 µM | 1.04
[12], 0.00152 µM | 1.01
[12], 0.00457 µM | 0.956
[12], 0.01372 µM | 0.942
[12], 0.04115 µM | 0.89
[12], 0.1235 µM | 0.863
[12], 0.3704 µM | 0.786
[12], 1.111 µM | 0.707
[12], 3.333 µM | 0.655
[12], 10 µM | 0.613

COC(=O)[C@@]1(O)C[C@H]2O[C@]1(C)n1c3ccccc3c3c4c(c5c6ccccc6n2c5c31)C(=O)NC4 [K-252a]
Conditions | relative viability
[1], 0.00017 µM | 1.05
[1], 0.00051 µM | 1.064
[1], 0.00152 µM | 1.079
[1], 0.00457 µM | 1.07
[1], 0.01372 µM | 1.02
[1], 0.04115 µM | 0.733
[1], 0.1235 µM | 0.559
[1], 0.3704 µM | 0.443
[1], 1.111 µM | 0.2914
[1], 3.333 µM | 0.151
[1], 10 µM | 0.0215
[2], 0.00017 µM | 1.09
[2], 0.00051 µM | 1.07
[2], 0.00152 µM | 1.09
[2], 0.00457 µM | 1.07
[2], 0.01372 µM | 1.05
[2], 0.04115 µM | 0.922
[2], 0.1235 µM | 0.773
[2], 0.3704 µM | 0.67
[2], 1.111 µM | 0.381
[2], 3.333 µM | -0.0139
[2], 10 µM | -0.0189
[3], 0.00017 µM | 1.06
[3], 0.00051 µM | 1.05
[3], 0.00152 µM | 1.08
[3], 0.00457 µM | 1.06
[3], 0.01372 µM | 1.05
[3], 0.04115 µM | 0.998
[3], 0.1235 µM | 0.815
[3], 0.3704 µM | 0.553
[3], 1.111 µM | 0.346
[3], 3.333 µM | 0.258
[3], 10 µM | 0.0419
[4], 0.00017 µM | 0.97
[4], 0.00051 µM | 0.953
[4], 0.00152 µM | 0.956
[4], 0.00457 µM | 0.916
[4], 0.01372 µM | 0.827
[4], 0.04115 µM | 0.618
[4], 0.1235 µM | 0.596
[4], 0.3704 µM | 0.407
[4], 1.111 µM | 0.324
[4], 3.333 µM | 0.0952
[4], 10 µM | 0.00197
[5], 0.00017 µM | 1.07
[5], 0.00051 µM | 1.08
[5], 0.00152 µM | 1.11
[5], 0.00457 µM | 1.12
[5], 0.01372 µM | 1.13
[5], 0.04115 µM | 1.13
[5], 0.1235 µM | 1.09
[5], 0.3704 µM | 1
[5], 1.111 µM | 0.507
[5], 3.333 µM | 0.278
[5], 10 µM | 0.0929
[6], 0.00017 µM | 1.03
[6], 0.00051 µM | 1.01
[6], 0.00152 µM | 1.04
[6], 0.00457 µM | 1.044
[6], 0.01372 µM | 0.9
[6], 0.04115 µM | 0.719
[6], 0.1235 µM | 0.664
[6], 0.3704 µM | 0.619
[6], 1.111 µM | 0.339
[6], 3.333 µM | 0.212
[6], 10 µM | 0.0825
[7], 0.00017 µM | 1.037
[7], 0.00051 µM | 1.033
[7], 0.00152 µM | 1.03
[7], 0.00457 µM | 1
[7], 0.01372 µM | 0.964
[7], 0.04115 µM | 0.892
[7], 0.1235 µM | 0.814
[7], 0.3704 µM | 0.772
[7], 1.111 µM | 0.528
[7], 3.333 µM | 0.294
[7], 10 µM | 0.0167
[8], 0.00017 µM | 1.06
[8], 0.00051 µM | 1.02
[8], 0.00152 µM | 1
[8], 0.00457 µM | 0.923
[8], 0.01372 µM | 0.863
[8], 0.04115 µM | 0.754
[8], 0.1235 µM | 0.713
[8], 0.3704 µM | 0.752
[8], 1.111 µM | 0.588
[8], 3.333 µM | 0.356
[8], 10 µM | 0.0254
[9], 0.00017 µM | 1.06
[9], 0.00051 µM | 1.11
[9], 0.00152 µM | 1.06
[9], 0.00457 µM | 1.07
[9], 0.01372 µM | 0.941
[9], 0.04115 µM | 0.6765
[9], 0.1235 µM | 0.527
[9], 0.3704 µM | 0.433
[9], 1.111 µM | 0.374
[9], 3.333 µM | 0.31
[9], 10 µM | 0.0136
[10], 0.00017 µM | 1.06
[10], 0.00051 µM | 1.05
[10], 0.00152 µM | 1.02
[10], 0.00457 µM | 1.02
[10], 0.01372 µM | 0.778
[10], 0.04115 µM | 0.508
[10], 0.1235 µM | 0.398
[10], 0.3704 µM | 0.256
[10], 1.111 µM | 0.126
[10], 3.333 µM | 0.115
[10], 10 µM | 0.114
[11], 0.00017 µM | 1.09
[11], 0.00051 µM | 1.06
[11], 0.00152 µM | 1.1
[11], 0.00457 µM | 1.05
[11], 0.01372 µM | 0.985
[11], 0.04115 µM | 0.843
[11], 0.1235 µM | 0.759
[11], 0.3704 µM | 0.589
[11], 1.111 µM | 0.394
[11], 3.333 µM | 0.0892
[11], 10 µM | 0.0117
[12], 0.00017 µM | 1.05
[12], 0.00051 µM | 1.06
[12], 0.00152 µM | 1.03
[12], 0.00457 µM | 1.031
[12], 0.01372 µM | 1.04
[12], 0.04115 µM | 0.977
[12], 0.1235 µM | 1
[12], 0.3704 µM | 0.893
[12], 1.111 µM | 0.0854
[12], 3.333 µM | 0.0149
[12], 10 µM | 0.00607
